Reference: ChEMBL document CHEMBL3885861, “Open TG-GATES”

Species on record: Rattus norvegicus
Assay: Open TG-GATES - Regimen: Single
Assay type: toxicity, organism-based, Sprague-Dawley
Design: regimen Single, gender Male, age 6 weeks
Conditions: in vivo, ip, 150 mg/kg, route intraperitoneal injection, dose level Low; for APTT / Bas / Eos / Fbg / Hb / Ht / Lym / MCH / MCHC / MCV / Mono / Neu / PT / Plat / RBC / Ret / WBC: tissue Blood; for KIDNEY_L / KIDNEY_R / KIDNEY_TOTAL: tissue Kidney; for LIVER: tissue Liver; for A/G / ALP / ALT / AST / BUN / CRE / Ca / Cl / DBIL / GLC / IP / K / LDH / Na / PL / RALB / TBIL / TC / TG / TP / gamma-GTP: tissue Plasma

Compound: CCCCS(=N)(=O)CCC(N)C(=O)O (configuration not stated) [BUTHIONINE SULFOXIMINE]
- TERMINAL_BW (3 h): 216.6 g
- APTT (3 h): 16.5 s
- Bas (3 h): 0%
- Eos (3 h): 0.8%
- Fbg (3 h): 216.4 mg/dL
- Hb (3 h): 13 g/dL
- Ht (3 h): 40%
- Lym (3 h): 74.8%
- MCH (3 h): 21.5 pg
- MCHC (3 h): 32.6%
- MCV (3 h): 66 fL
- Mono (3 h): 6%
- Neu (3 h): 18.6%
- PT (3 h): 12.1 s
- Plat (3 h): 112.9 x10_4/uL
- RBC (3 h): 606.2 x10_4/ul
- Ret (3 h): 9.2%
- WBC (3 h): 102.3 x10_2/uL
- KIDNEY_L (3 h): 0.9 g
- KIDNEY_R (3 h): 1 g
- KIDNEY_TOTAL (3 h): 1.9 g
- LIVER (3 h): 10.3 g
- A/G (3 h): 2.3
- ALP (3 h): 957.2 IU/L
- ALT (3 h): 38.8 IU/L
- AST (3 h): 70.8 IU/L
- BUN (3 h): 13.6 mg/dL
- CRE (3 h): 0.5 mg/dL
- Ca (3 h): 10.9 mg/dL
- Cl (3 h): 104.8 meq/L
- DBIL (3 h): 0.08 mg/dL
- GLC (3 h): 193 mg/dL
- IP (3 h): 9.3 mg/dL
- K (3 h): 4.7 meq/L
- LDH (3 h): 91.8 IU/L
- Na (3 h): 139.8 meq/L
- PL (3 h): 133.8 mg/dL
- RALB (3 h): 3.8 g/dL
- TBIL (3 h): 0.3 mg/dL
- TC (3 h): 73.4 mg/dL
- TG (3 h): 58.4 mg/dL
- TP (3 h): 5.4 g/dL
- gamma-GTP (3 h): 1.2 IU/L
- TERMINAL_BW (6 h): 216 g
- APTT (6 h): 16.4 s
- Bas (6 h): 0%
- Eos (6 h): 0.6%
- Fbg (6 h): 217.8 mg/dL
- Hb (6 h): 13.3 g/dL
- Ht (6 h): 39.8%
- Lym (6 h): 70%
- MCH (6 h): 22.2 pg
- MCHC (6 h): 33.6%
- MCV (6 h): 66.2 fL
- Mono (6 h): 8.6%
- Neu (6 h): 20.8%
- PT (6 h): 11.2 s
- Plat (6 h): 109.8 x10_4/uL
- RBC (6 h): 600.6 x10_4/ul
- Ret (6 h): 9.3%
- WBC (6 h): 102.1 x10_2/uL
- KIDNEY_L (6 h): 1 g
- KIDNEY_R (6 h): 1 g
- KIDNEY_TOTAL (6 h): 2 g
- LIVER (6 h): 9.7 g
- A/G (6 h): 1.8
- ALP (6 h): 849.4 IU/L
- ALT (6 h): 32.8 IU/L
- AST (6 h): 72 IU/L
- BUN (6 h): 13 mg/dL
- CRE (6 h): 0.6 mg/dL
- Ca (6 h): 10.8 mg/dL
- Cl (6 h): 105.6 meq/L
- DBIL (6 h): 0 mg/dL
- GLC (6 h): 191 mg/dL
- IP (6 h): 9.5 mg/dL
- K (6 h): 4.6 meq/L
- LDH (6 h): 73.2 IU/L
- Na (6 h): 140.2 meq/L
- PL (6 h): 131.4 mg/dL
- RALB (6 h): 3.4 g/dL
- TBIL (6 h): 0.4 mg/dL
- TC (6 h): 71.8 mg/dL
- TG (6 h): 63.4 mg/dL
- TP (6 h): 5.2 g/dL
- gamma-GTP (6 h): 1.4 IU/L
- TERMINAL_BW (9 h): 212.7 g
- APTT (9 h): 16.6 s
- Bas (9 h): 0%
- Eos (9 h): 1.2%
- Fbg (9 h): 232.6 mg/dL
- Hb (9 h): 13 g/dL
- Ht (9 h): 38.7%
- Lym (9 h): 59.6%
- MCH (9 h): 22.1 pg
- MCHC (9 h): 33.7%
- MCV (9 h): 65.6 fL
- Mono (9 h): 4.2%
- Neu (9 h): 35.2%
- PT (9 h): 11.2 s
- Plat (9 h): 112.1 x10_4/uL
- RBC (9 h): 589.8 x10_4/ul
- Ret (9 h): 10.3%
- WBC (9 h): 124.2 x10_2/uL
- KIDNEY_L (9 h): 1 g
- KIDNEY_R (9 h): 1 g
- KIDNEY_TOTAL (9 h): 2 g
- LIVER (9 h): 8.7 g
- A/G (9 h): 1.9
- ALP (9 h): 803.6 IU/L
- ALT (9 h): 33.6 IU/L
- AST (9 h): 69 IU/L
- BUN (9 h): 10.4 mg/dL
- CRE (9 h): 0.5 mg/dL
- Ca (9 h): 10.9 mg/dL
- Cl (9 h): 105.8 meq/L
- DBIL (9 h): 0.024 mg/dL
- GLC (9 h): 196.8 mg/dL
- IP (9 h): 9.7 mg/dL
- K (9 h): 4.9 meq/L
- LDH (9 h): 94 IU/L
- Na (9 h): 139 meq/L
- PL (9 h): 143.4 mg/dL
- RALB (9 h): 3.5 g/dL
- TBIL (9 h): 0.4 mg/dL
- TC (9 h): 89.6 mg/dL
- TG (9 h): 33.8 mg/dL
- TP (9 h): 5.4 g/dL
- gamma-GTP (9 h): 1.8 IU/L
- TERMINAL_BW (24 h): 227.8 g
- APTT (24 h): 16.9 s
- Bas (24 h): 0%
- Eos (24 h): 1.4%
- Fbg (24 h): 242.2 mg/dL
- Hb (24 h): 13.1 g/dL
- Ht (24 h): 39.2%
- Lym (24 h): 77.8%
- MCH (24 h): 21.8 pg
- MCHC (24 h): 33.5%
- MCV (24 h): 65.1 fL
- Mono (24 h): 6%
- Neu (24 h): 14.6%
- PT (24 h): 11.5 s
- Plat (24 h): 125.6 x10_4/uL
- RBC (24 h): 602.2 x10_4/ul
- Ret (24 h): 9.2%
- WBC (24 h): 76.2 x10_2/uL
- KIDNEY_L (24 h): 1 g
- KIDNEY_R (24 h): 1 g
- KIDNEY_TOTAL (24 h): 1.9 g
- LIVER (24 h): 11.2 g
- A/G (24 h): 1.8
- ALP (24 h): 977.2 IU/L
- ALT (24 h): 31.4 IU/L
- AST (24 h): 61.4 IU/L
- BUN (24 h): 19.4 mg/dL
- CRE (24 h): 0.5 mg/dL
- Ca (24 h): 11.3 mg/dL
- Cl (24 h): 104 meq/L
- DBIL (24 h): 0.01 mg/dL
- GLC (24 h): 209 mg/dL
- IP (24 h): 8.4 mg/dL
- K (24 h): 4.5 meq/L
- LDH (24 h): 86 IU/L
- Na (24 h): 139.8 meq/L
- PL (24 h): 156.6 mg/dL
- RALB (24 h): 3.7 g/dL
- TBIL (24 h): 0.3 mg/dL
- TC (24 h): 88.2 mg/dL
- TG (24 h): 101 mg/dL
- TP (24 h): 5.9 g/dL
- gamma-GTP (24 h): 1 IU/L
